This test deals with T1, TNF-α (Homo sapiens, UniProt P01375).
T1 construct: purchased R&D 210-TA-020/CF
The test can be described thus: TNF-α Induced HEK Blue Cellular Assay (secreted alkaline phosphatase expression, QUANTI-Blue). The test is classed as cell-based. To be noted: HEK Blue TNFα reporter cells, TNF-α 100 μg/ml, 24 hrs at 37° C., inhibition of secreted alkaline phosphatase. The procedure, abridged:
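Compound was serially diluted from […] to 0.5 nM final, then incubated with 10,000 HEK Blue TNFα reporter cells per well and […] TNF-α for 24 h at 37° C. SEAP output was read by QUANTI-Blue absorbance at 620 nm. Inhibition was background-corrected against DMSO controls with and without stimulation, and IC50 was fitted with a 4-parameter logistic equation.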

Like-named read-outs stand apart in the source and are kept apart here.

T1 sequence (P01375 77-233 limits assumed): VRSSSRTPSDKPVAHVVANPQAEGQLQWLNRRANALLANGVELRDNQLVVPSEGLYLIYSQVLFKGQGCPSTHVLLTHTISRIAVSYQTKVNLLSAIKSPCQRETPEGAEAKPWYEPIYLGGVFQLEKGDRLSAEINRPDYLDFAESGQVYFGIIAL

Take `CN1C(=O)c2cccc(OC(F)F)c2[C@H]2C[C@@H]1c1nc3ccc(C#Cc4cnn(C)c4)cc3n12` [Example 1, (1R,11R)-18-(difluoromethoxy)-12-methyl-5-[2-(1-methylpyrazol-4-yl)ethynyl]-2,9,12-triazapentacyclo[9.8.1.0^∧{2,10}.0^∧{3,8}. 0^∧{14,19}]icosa-3(8),4,6,9,14(19),15,17-heptaen-13-one]: the IC50 (read-out: IC50 value) was under 0.1 µM.

Take `[2H]C([2H])([2H])N1C(=O)c2cccc(OC(F)F)c2[C@H]2C[C@@H]1c1nc3ccc(C#CCCOC)cc3n12` [Example 77, (7R,14R)-1-(difluoromethoxy)-11-(4-methoxybut-1-yn-1-yl)-6-(methyl-d3)-6,7-dihydro-7,14-methanobenzo[f]benzo[4,5]imidazo[1,2-a][1,4]diazocin-5(14H)-one]: the IC50 (read-out: IC50 value) was under 0.1 µM.

Turning to `[2H]C([2H])([2H])N1C(=O)c2cccc(OC(F)F)c2[C@H]2C[C@@H]1c1nc3ccc(C#CCCl)cc3n12` [Example 172, (7R,14R)-11-(3-chloroprop-1-yn-1-yl)-1-(difluoromethoxy)-6-(methyl-d3)-6,7-dihydro-7,14-methanobenzo[f]benzo[4,5]imidazo[1,2-a][1,4]diazocin-5(14H)-one], the IC50 (read-out: IC50 value) is under 0.1 µM.

Regarding `[2H]C([2H])([2H])N1C(=O)c2cccc(OC(F)F)c2[C@H]2C[C@@H]1c1nc3ccc(C#CC(=O)OC)cc3n12` [Example 27, methyl 3-((7R,14R)-1-(difluoromethoxy)-6-(methyl-d3)-5-oxo-5,6,7,14-tetrahydro-7,14-methanobenzo[f]benzo[4,5]imidazo[1,2-a][1,4]diazocin-11-yl)propiolate], the IC50 (read-out: IC50 value) was under 0.1 µM.

Turning to `[2H]C([2H])([2H])N1C(=O)c2cccc(OC(F)F)c2[C@H]2C[C@@H]1c1nc3ccc(C#CCC(C)O)cc3n12` (single isomer, unassigned) [Example 139, (7R,14R)-1-(difluoromethoxy)-11-((R or S)-4-hydroxypent-1-yn-1-yl)-6-(methyl-d3)-6,7-dihydro-7,14-methanobenzo[f]benzo[4,5]imidazo[1,2-a][1,4]diazocin-5(14H)-one], the IC50 (read-out: IC50 value) is under 0.1 µM.

With `[2H]C([2H])([2H])N1C(=O)c2cccc(OC(F)F)c2[C@H]2C[C@@H]1c1nc3ccc(C#CC(O)CC)cc3n12` (single isomer, unassigned) [Example 208, (7R,14R)-1-(difluoromethoxy)-11-((R or S)-3-hydroxypent-1-yn-1-yl)-6-(methyl-d3)-6,7-dihydro-7,14-methanobenzo[f]benzo[4,5]imidazo[1,2-a][1,4]diazocin-5(14H)-one], under “read-out: IC50 value”, the IC50 was in the range of 10 to 30 µM.

Regarding `[2H]C([2H])([2H])N1C(=O)c2cccc(OC(F)F)c2[C@H]2C[C@@H]1c1nc3ccc(C#CC4CC(C)(O)C4)cc3n12` (stereo partly drawn) [Example 177, (7R,14R)-1-(difluoromethoxy)-11-((3-hydroxy-3-methylcyclobutyl)ethynyl)-6-(methyl-d3)-6,7-dihydro-7,14-methanobenzo[f]benzo[4,5]imidazo[1,2-a][1,4]diazocin-5(14H)-one], the IC50 (read-out: IC50 value) is under 0.1 µM.

`[2H]C([2H])([2H])N1C(=O)c2cccc(OC(F)F)c2[C@H]2C[C@@H]1c1nc3ccc(C#CC(=O)NCC(F)(F)F)cc3n12` [Example 89, 3-((7R,14R)-1-(difluoromethoxy)-6-(methyl-d3)-5-oxo-5,6,7,14-tetrahydro-7,14-methanobenzo[f]benzo[4,5]imidazo[1,2-a][1,4]diazocin-11-yl)-N-(2,2,2-trifluoroethyl)propiolamide] showed an IC50 (IC50 value) of 0.1 to 1 µM.

With `[2H]C([2H])([2H])N1C(=O)c2cccc(OC(F)F)c2[C@H]2C[C@@H]1c1nc3ccc(C#C[C@H](C)N)cc3n12` [Example 51, (7R,14R)-11-((S)-3-aminobut-1-yn-1-yl)-1-(difluoromethoxy)-6-(methyl-d3)-6,7-dihydro-7,14-methanobenzo[f]benzo[4,5]imidazo[1,2-a][1,4]diazocin-5(14H)-one], the IC50 (read-out: IC50 value) is under 0.1 µM.

On to `[2H]C([2H])([2H])N1C(=O)c2cccc(OC(F)F)c2[C@H]2C[C@@H]1c1nc3ccc(C#CC4(C)CN(S(C)(=O)=O)C4)cc3n12` [Example 162, (7R,14R)-1-(difluoromethoxy)-6-(methyl-d3)-11-((3-methyl-1-(methylsulfonyl)azetidin-3-yl)ethynyl)-6,7-dihydro-7,14-methanobenzo[f]benzo[4,5]imidazo[1,2-a][1,4]diazocin-5(14H)-one], for which, where the note is “read-out: IC50 value”, the IC50 was under 0.1 µM.

For the compound `[2H]C([2H])([2H])N1C(=O)c2cccc(OC(F)F)c2[C@H]2C[C@@H]1c1nc3ccc(C#CC4CC(O)C4)cc3n12` (stereo partly drawn) [Example 110, (7R,14R)-1-(difluoromethoxy)-11-((3-hydroxycyclobutyl)ethynyl)-6-(methyl-d3)-6,7-dihydro-7,14-methanobenzo[f]benzo[4,5]imidazo[1,2-a][1,4]diazocin-5(14H)-one], the half-maximal inhibitory concentration (IC50) (read-out: IC50 value) was under 0.1 µM.

For the compound `[2H]C([2H])([2H])N1C(=O)c2cccc(OC(F)F)c2[C@H]2C[C@@H]1c1nc3ccc(C#CCN4CC[C@@H](F)C4)cc3n12` [Example 236, (7R,14R)-1-(difluoromethoxy)-11-(3-((R)-3-fluoropyrrolidin-1-yl)prop-1-yn-1-yl)-6-(methyl-d3)-6,7-dihydro-7,14-methanobenzo[f]benzo[4,5]imidazo[1,2-a][1,4]diazocin-5(14H)-one], where the note is “read-out: IC50 value”, the IC50 was under 0.1 µM.

Turning to `[2H]C([2H])([2H])N1C(=O)c2cccc(OC(F)F)c2[C@H]2C[C@@H]1c1nc3ccc(C#CCOC4CCNCC4)cc3n12` [Example 117, (7R,14R)-1-(difluoromethoxy)-6-(methyl-d3)-11-(3-(piperidin-4-yloxy)prop-1-yn-1-yl)-6,7-dihydro-7,14-methanobenzo[f]benzo[4,5]imidazo[1,2-a][1,4]diazocin-5(14H)-one], for the setting “read-out: IC50 value”, the IC50 lay in the range of 0.1 to 1 µM.

As for `[2H]C([2H])([2H])N1C(=O)c2cccc(OC(F)F)c2[C@H]2C[C@@H]1c1nc3ccc(C#C[C@H](C)O)cc3n12` [Example 169, (7R,14R)-1-(difluoromethoxy)-11-((S)-3-hydroxybut-1-yn-1-yl)-6-(methyl-d3)-6,7-dihydro-7,14-methanobenzo[f]benzo[4,5]imidazo[1,2-a][1,4]diazocin-5(14H)-one], the IC50 (read-out: IC50 value) lay in the range of 0.1 to 1 µM.

Turning to `[2H]C([2H])([2H])N1C(=O)c2cccc(OC(F)F)c2[C@H]2C[C@@H]1c1nc3ccc(C#CC4(C(F)F)CC4)cc3n12` [Example 188, (7R,14R)-1-(difluoromethoxy)-11-((1-(difluoromethyl)cyclopropyl)ethynyl)-6-(methyl-d3)-6,7-dihydro-7,14-methanobenzo[f]benzo[4,5]imidazo[1,2-a][1,4]diazocin-5(14H)-one], the IC50 (read-out: IC50 value) fell in the range of 0.1 to 1 µM.

As for `[2H]C([2H])([2H])N1C(=O)c2cccc(OC(F)F)c2[C@H]2C[C@@H]1c1nc3ccc(C#CCCCC#N)cc3n12` [Example 86, 6-((7R,14R)-1-(difluoromethoxy)-6-(methyl-d3)-5-oxo-5,6,7,14-tetrahydro-7,14-methanobenzo[f]benzo[4,5]imidazo[1,2-a][1,4]diazocin-11-yl)hex-5-ynenitrile], the IC50 (read-out: IC50 value) is under 0.1 µM.

The values are drawn from patent US20260365682A1, “MODULATORS OF TNF-ALPHA ACTIVITY” (Forward Therapeutics, Inc., priority 2022, published 2026).
